Values quoted from earlier work in patent US20250127746A1, “TOPICAL CONTACT SENSITIZERS TO TREAT CANCER” (Squarex Pharmaceutical Corporation, priority 2023, published 2025).
Entries after “also recorded” stand apart in the source; their conditions may differ.

Tests used:
common warts = conditions: Candida injected, SADBE applied topically
[1] = tested on: herpes labialis outbreaks
[2] = tested on: PBMCs stimulated with HSV-1
[3] = prevention of cold sore episodes

## CCCCOc1c(OCCCC)c(=O)c1=O [SADBE, 3,4-Dibutoxy-3-cyclobutene-1,2-dione]
Common warts
  efficacy to treat common warts: effective in treating warts; also recorded: effective to treat common warts
[1]; [3]
  time after which efficacy begins to wane: 3 to 4 months
  time for a dose to take effect: 2 to 8 weeks
[1]; topical application to the arm
  number of oral herpes (herpes labialis) outbreaks: effective in preventing (reducing the number of) herpes labialis episodes; also recorded: reduce frequency of herpes labialis outbreaks; also recorded: prevent and reduce the number of oral herpes outbreaks
[2]; 8 weeks after a topical application to the arm
  expression of interferon gamma (IFNG) by isolated PBMCs exposed to HSV: increased
[2]; 56 days after a single topical dose, versus day 1
  PBMC proliferation and immune gene expression profile versus subjects with infrequent or zero outbreaks: more like those of the subjects with infrequent or zero outbreaks
[2]; single dose, against both herpes simplex virus and Candida extract
  change of immune response type: from a type 2 immune response to a type 1 immune response
